From patent US20050019850A1, “Method for identifying fungicidally active compounds based on guanylate kinases” (priority 2003, published 2005)

Biological target: U. maydis guanylate kinase (Mycosarcoma maydis, UniProt A0A0D1DZ04)
Assay: Determination of the KM value of guanylate kinase for its substrates (Lineweaver/Burk)
Type: biochemical, Ustilago maydis
Conditions: read-out: KM value; FIG. 3, Lineweaver/Burk representation; substrate of guanylate kinase
Text: Lineweaver/Burk representation of the data: 1/Vo=1/Vmax+1/S×(KM/Vmax), wherein Vo is the initial reaction rate, Vmax the maximum conversion rate possible and S the substrate concentration. Vmax and KM can then be read as the intercepts on the horizontal and the vertical axes 1/Vmax and 1/KM, respectively.
Here, pyruvate kinase converts phosphoenolpyruvate into pyruvate, which is then utilised by lactate dehydrogenase for oxidizing NADH to give NAD. The NAD concentration, which increases owing to the coupled reaction, or the NADH concentration, which decreases owing to the coupled reaction, can be measured photospectrometrically by absorption or fluorescence measurement (absorption drops at 340 nm, fluorescence drops at 340 nm (emission at 465 nm)).

U. maydis guanylate kinase, sequence (A0A0D1DZ04 118-213, added parts left off): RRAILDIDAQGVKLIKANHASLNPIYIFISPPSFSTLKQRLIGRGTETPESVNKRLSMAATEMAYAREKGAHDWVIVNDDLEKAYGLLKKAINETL

Nc1ncnc2c1ncn2[C@@H]1O[C@H](COP(=O)(O)OP(=O)(O)OP(=O)(O)O)[C@@H](O)[C@H]1O [ATP]
Km: 100 µM

Nc1nc2c(ncn2[C@@H]2O[C@H](COP(=O)(O)O)[C@@H](O)[C@H]2O)c(=O)[nH]1 [GMP]
Km: 40 µM
